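All cell lines were grown in 96-well plates and treated with compound for 48 hours. TGI marks complete inhibition of growth.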
Key:
Test in all cases: NCI tumour cell line growth inhibition, 48 h
LOX IMVI melanoma = tested on: LOX IMVI melanoma
T-47D breast = tested on: T-47D breast
A498 renal = tested on: A498 renal
OVCAR-8 ovarian = tested on: OVCAR-8 ovarian
SW-620 colon = tested on: SW-620 colon
NCI-H522 lung = tested on: NCI-H522 lung
MALME-3M melanoma = tested on: MALME-3M melanoma
KM12 colon = tested on: KM12 colon
SK-MEL-28 melanoma = tested on: SK-MEL-28 melanoma
SR leukemia = tested on: SR leukemia
HCT-116 colon = tested on: HCT-116 colon
COLO 205 colon = tested on: COLO 205 colon
HS 578T breast = tested on: HS 578T breast
RPMI-8226 leukemia = tested on: RPMI-8226 leukemia
M14 melanoma = tested on: M14 melanoma
NCI-H460 lung = tested on: NCI-H460 lung
SK-MEL-2 melanoma = tested on: SK-MEL-2 melanoma
RXF 393 renal = tested on: RXF 393 renal
MDA-MB-231 breast = tested on: MDA-MB-231 breast
CAKI-1 renal = tested on: CAKI-1 renal
HOP-62 NSCLC = tested on: HOP-62 NSCLC
K-562 leukemia = tested on: K-562 leukemia
SK-OV-3 ovarian = tested on: SK-OV-3 ovarian
SF-295 CNS = tested on: SF-295 CNS
SK-MEL-5 melanoma = tested on: SK-MEL-5 melanoma
OVCAR-4 ovarian = tested on: OVCAR-4 ovarian
MOLT-4 leukemia = tested on: MOLT-4 leukemia
HOP-92 NSCLC = tested on: HOP-92 NSCLC
SN12C renal = tested on: SN12C renal
OVCAR-3 ovarian = tested on: OVCAR-3 ovarian
MDA-MB-435 = tested on: MDA-MB-435
U251 CNS = tested on: U251 CNS
HL-60(TB) leukemia = tested on: HL-60(TB) leukemia
BT-549 breast = tested on: BT-549 breast
PC-3 prostate = tested on: PC-3 prostate
UACC-257 melanoma = tested on: UACC-257 melanoma
HCT-15 colon = tested on: HCT-15 colon
TK-10 renal = tested on: TK-10 renal
MDA-N = tested on: MDA-N
NCI/ADR-RES ovarian = tested on: NCI/ADR-RES ovarian
SF-268 CNS = tested on: SF-268 CNS
SNB-75 CNS = tested on: SNB-75 CNS
UO-31 renal = tested on: UO-31 renal
HT29 colon = tested on: HT29 colon
SNB-19 CNS = tested on: SNB-19 CNS
OVCAR-5 ovarian = tested on: OVCAR-5 ovarian
IGROV1 ovarian = tested on: IGROV1 ovarian
NCI-H23 lung = tested on: NCI-H23 lung
NCI-H226 lung = tested on: NCI-H226 lung
ACHN renal = tested on: ACHN renal
EKVX NSCLC = tested on: EKVX NSCLC
HCC-2998 colon = tested on: HCC-2998 colon
MCF7 breast = tested on: MCF7 breast
DU-145 prostate = tested on: DU-145 prostate
786-0 renal = tested on: 786-0 renal
A549 NSCLC = tested on: A549 NSCLC
UACC-62 melanoma = tested on: UACC-62 melanoma
CCRF-CEM leukemia = tested on: CCRF-CEM leukemia
SF-539 CNS = tested on: SF-539 CNS

Compound O=C1[C@@H]2[C@@H](CN3CN(c4ccccc4)N=C(c4ccccc4)[C@@]23c2ccccc2)C(=O)N1c1ccccc1 has a TGI (LOX IMVI melanoma) of 3.3 µM, a TGI (T-47D breast) of 8.04 µM and a TGI (A498 renal) of 36.6 µM. For the same compound, the TGI (OVCAR-8 ovarian) was 13.9 µM, the TGI (SW-620 colon) was 3.84 µM and the TGI (NCI-H522 lung) was 1.13 µM. For the same compound, the TGI (MALME-3M melanoma) was 3.57 µM, the TGI (KM12 colon) was greater than 75.5 µM and the TGI (SK-MEL-28 melanoma) was 26 µM. For the same compound, the TGI (SR leukemia) was greater than 100 µM, the TGI (HCT-116 colon) was 31.8 µM and the TGI (COLO 205 colon) was 3.83 µM. For the same compound, the TGI (HS 578T breast) was greater than 65.8 µM, the TGI (RPMI-8226 leukemia) was 12.4 µM and the TGI (M14 melanoma) was 9.73 µM. It also gave a TGI (NCI-H460 lung) of 50.4 µM, a TGI (SK-MEL-2 melanoma) of 40.3 µM and a TGI (RXF 393 renal) of 9.65 µM. It also gave a TGI (MDA-MB-231 breast) of 16.6 µM, a TGI (CAKI-1 renal) of 2.45 µM and a TGI (HOP-62 NSCLC) of 30 µM. For the same compound, the TGI (K-562 leukemia) was greater than 25.4 µM, the TGI (SK-OV-3 ovarian) was 27.7 µM and the TGI (SF-295 CNS) was 30.2 µM. It also gave a TGI (SK-MEL-5 melanoma) of 32.6 µM, a TGI (OVCAR-4 ovarian) greater than 23.8 µM and a TGI (MOLT-4 leukemia) greater than 100 µM. It also gave a TGI (HOP-92 NSCLC) of 3.86 µM, a TGI (SN12C renal) of 18.4 µM and a TGI (OVCAR-3 ovarian) of 21.2 µM. The TGI (MDA-MB-435) was 23.2 µM, the TGI (U251 CNS) was greater than 65.6 µM and the TGI (HL-60(TB) leukemia) was 6.33 µM. For the same compound, the TGI (BT-549 breast) was 13.2 µM, the TGI (PC-3 prostate) was 27.1 µM and the TGI (UACC-257 melanoma) was 29.1 µM. It also gave a TGI (HCT-15 colon) of 5.25 µM, a TGI (TK-10 renal) of 3.13 µM and a TGI (MDA-N) of 20.1 µM. For the same compound, the TGI (NCI/ADR-RES ovarian) was 49.2 µM, the TGI (SF-268 CNS) was 47.1 µM and the TGI (SNB-75 CNS) was 34.9 µM. For the same compound, the TGI (UO-31 renal) was 3.29 µM, the TGI (HT29 colon) was 6.22 µM and the TGI (SNB-19 CNS) was 36.8 µM. It also gave a TGI (OVCAR-5 ovarian) of 10.4 µM, a TGI (IGROV1 ovarian) of 29.5 µM and a TGI (NCI-H23 lung) of 23.6 µM. The TGI (NCI-H226 lung) was 8.87 µM, the TGI (ACHN renal) was 3.69 µM and the TGI (EKVX NSCLC) was 11 µM. It also gave a TGI (HCC-2998 colon) greater than 100 µM, a TGI (MCF7 breast) of 4.04 µM and a TGI (DU-145 prostate) of 24.7 µM. It also gave a TGI (786-0 renal) of 5.56 µM, a TGI (A549 NSCLC) of 19.7 µM and a TGI (UACC-62 melanoma) of 20.1 µM.
With COc1cc2c(cc1OC)C(=O)N(c1ccc(OCCN3CCCC3)cc1)C2 the TGI (LOX IMVI melanoma) was greater than 100 µM, the TGI (T-47D breast) was greater than 100 µM and the TGI (A498 renal) was greater than 100 µM. The TGI (OVCAR-8 ovarian) was greater than 100 µM, the TGI (SW-620 colon) was greater than 100 µM and the TGI (NCI-H522 lung) was greater than 100 µM. It also gave a TGI (MALME-3M melanoma) greater than 100 µM, a TGI (KM12 colon) greater than 100 µM and a TGI (SK-MEL-28 melanoma) greater than 100 µM. For the same compound, the TGI (CCRF-CEM leukemia) was greater than 100 µM, the TGI (SR leukemia) was greater than 100 µM and the TGI (HCT-116 colon) was greater than 100 µM. It also gave a TGI (COLO 205 colon) greater than 100 µM, a TGI (HS 578T breast) greater than 100 µM and a TGI (RPMI-8226 leukemia) greater than 100 µM. The TGI (M14 melanoma) was greater than 100 µM, the TGI (NCI-H460 lung) was greater than 100 µM and the TGI (SK-MEL-2 melanoma) was greater than 100 µM. The TGI (RXF 393 renal) was greater than 100 µM, the TGI (MDA-MB-231 breast) was greater than 100 µM and the TGI (CAKI-1 renal) was greater than 100 µM. The TGI (HOP-62 NSCLC) was greater than 100 µM, the TGI (K-562 leukemia) was greater than 100 µM and the TGI (SK-OV-3 ovarian) was greater than 100 µM. For the same compound, the TGI (SF-295 CNS) was greater than 100 µM, the TGI (SK-MEL-5 melanoma) was greater than 100 µM and the TGI (OVCAR-4 ovarian) was greater than 100 µM. The TGI (MOLT-4 leukemia) was greater than 100 µM, the TGI (HOP-92 NSCLC) was greater than 100 µM and the TGI (SN12C renal) was greater than 100 µM. It also gave a TGI (OVCAR-3 ovarian) greater than 100 µM, a TGI (MDA-MB-435) greater than 100 µM and a TGI (U251 CNS) greater than 100 µM. It also gave a TGI (SF-539 CNS) greater than 100 µM, a TGI (HL-60(TB) leukemia) greater than 100 µM and a TGI (BT-549 breast) greater than 100 µM. For the same compound, the TGI (PC-3 prostate) was greater than 100 µM, the TGI (UACC-257 melanoma) was greater than 100 µM and the TGI (HCT-15 colon) was greater than 100 µM. The TGI (TK-10 renal) was greater than 100 µM, the TGI (MDA-N) was greater than 100 µM and the TGI (NCI/ADR-RES ovarian) was greater than 100 µM. For the same compound, the TGI (SF-268 CNS) was greater than 100 µM, the TGI (HT29 colon) was greater than 100 µM and the TGI (SNB-19 CNS) was greater than 100 µM. The TGI (OVCAR-5 ovarian) was greater than 100 µM, the TGI (IGROV1 ovarian) was greater than 100 µM and the TGI (NCI-H23 lung) was greater than 100 µM. For the same compound, the TGI (NCI-H226 lung) was greater than 100 µM, the TGI (ACHN renal) was greater than 100 µM and the TGI (EKVX NSCLC) was greater than 100 µM. The TGI (HCC-2998 colon) was greater than 100 µM, the TGI (MCF7 breast) was greater than 100 µM and the TGI (DU-145 prostate) was greater than 100 µM. The TGI (786-0 renal) was greater than 100 µM, the TGI (A549 NSCLC) was greater than 100 µM and the TGI (UACC-62 melanoma) was greater than 100 µM.

Reference: PubChem BioAssay (NCI)
